One assay deals with KRAS G12S (Homo sapiens (Human), UniProt P01116+P62937, G12S). Nature of the assay: Ras-Raf (BRAF RBD) disruption / FRET / MOA assay, KRAS G12S. In kind it is biochemical. The conditions noted are these: Ras-Raf disruption/FRET/MOA assay; class symbols; read-out: KRAS G12S FRET data IC50. As to the method: (§1) The purpose of this biochemical assay is to measure the ability of test compounds to facilitate ternary complex formation between a nucleotide-loaded Ras isoform and cyclophilin A; the resulting ternary complex disrupts binding to a BRAF^RBD construct, inhibiting Ras signaling through a RAF effector.
KRAS G12S, sequence (P01116-2 other isoform, or with tags, fused parts or gaps G12S): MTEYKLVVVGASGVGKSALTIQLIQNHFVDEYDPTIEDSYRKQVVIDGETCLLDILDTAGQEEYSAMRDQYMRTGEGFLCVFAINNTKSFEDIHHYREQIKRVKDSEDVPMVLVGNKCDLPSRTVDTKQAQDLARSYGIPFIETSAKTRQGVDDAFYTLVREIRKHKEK
KRAS G12S, sequence (P62937 whole entry, canonical isoform): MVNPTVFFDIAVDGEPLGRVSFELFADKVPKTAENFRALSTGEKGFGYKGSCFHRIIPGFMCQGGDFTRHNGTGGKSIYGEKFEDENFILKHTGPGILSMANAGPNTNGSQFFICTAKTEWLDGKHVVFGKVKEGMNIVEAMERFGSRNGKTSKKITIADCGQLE
(§2) Compound is present in plate wells as a 10-point 3-fold dilution series starting at a final concentration of 30 μM. After incubation at 25° C. for 3 hours, a mixture of Anti-His Eu-W1024 and anti-GST allophycocyanin is then added to assay sample wells at final concentrations of 10 nM and 50 nM, respectively, and the reaction incubated for an additional 1.5 hours. […] Compounds that facilitate disruption of a Ras:RAF complex are identified as those eliciting a decrease in the TR-FRET ratio relative to DMSO control wells.
(§3) This protocol may also be executed substituting other Ras proteins or nucleotides.
(§4) The purpose of this biochemical assay was to measure the ability of test compounds to facilitate ternary complex formation between a nucleotide-loaded K-Ras isoform and Cyclophilin A; the resulting ternary complex disrupts binding to a BRAF^RBD construct, inhibiting K-Ras signaling through a RAF effector. Data is reported as IC50 values.
(§5) Compound was present in plate wells as a 10-point 3-fold dilution series starting at a final concentration of 30 μM. After incubation at 25° C. for 3 hours, a mixture of Anti-His Eu-W1024 and anti-GST allophycocyanin was then added to assay sample wells at final concentrations of 10 nM and 50 nM, respectively, and the reaction incubated for an additional 1.5 hours. […] Compounds that facilitate disruption of a K-Ras:RAF complex were identified as those eliciting a decrease in the TR-FRET ratio relative to DMSO control wells.

The target of the next assay is KRAS G12D (Homo sapiens (Human), UniProt P01116+P62937, G12D). Nature of the assay: Ras-Raf (BRAF RBD) disruption / FRET / MOA assay, KRAS G12D. In kind it is biochemical. The conditions noted are these: Ras-Raf disruption/FRET/MOA assay; class symbols; read-out: KRAS G12D FRET data IC50. As to the method:
as §1, §2, §3, §4, §5

Bounds are passed on as bounds.

KRAS G12D, sequence (P01116-2 other isoform, or with tags, fused parts or gaps G12D): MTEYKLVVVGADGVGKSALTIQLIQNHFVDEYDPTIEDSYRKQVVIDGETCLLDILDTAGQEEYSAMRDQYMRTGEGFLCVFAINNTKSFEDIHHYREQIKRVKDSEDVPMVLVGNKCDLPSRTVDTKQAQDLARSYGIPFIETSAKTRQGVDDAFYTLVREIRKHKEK
KRAS G12D, sequence (P62937 whole entry): as the sequence (P62937 whole entry, canonical isoform) above

`C=CC(=O)N1CC[C@H](C(=O)N(C)[C@H](C(=O)N[C@H]2Cc3cc(N)cc(c3)-c3ccc4c(c3)c(c(-c3ccccc3COC)n4CC)CC(C)(C)COC(=O)[C@@H]3CCCN(N3)C2=O)C(C)C)C1` [Example A042]: the half-inhibitory concentration (IC50) on KRAS G12S and at KRAS G12D was > 10 µM throughout.

Turning to `C=CC(=O)N1C[C@H](C)[C@H](C(=O)N(C)[C@H](C(=O)N[C@H]2Cc3cc(O)cc(c3)-c3ccc4c(c3)c(c(-c3ccccc3CN(C)C)n4CC)CC(C)(C)COC(=O)[C@@H]3CCCN(N3)C2=O)C2CCCC2)C1` [Example A043], the figures for the half-inhibitory concentration (IC50) at KRAS G12S and on KRAS G12D were 0.1 to 1 µM and 1 to 10 µM, respectively.

As to `C=CC(=O)N1CC[C@H](C(=O)N(C)[C@H](C(=O)N[C@H]2Cc3cc(O)cc(c3)-c3ccc4c(c3)c(c(-c3cccnc3COCC)n4CC)CC(C)(C)COC(=O)[C@@H]3CCCN(N3)C2=O)C(C)C)C1` [Example A044], the IC50 – broadly, the concentration that inhibits the measured activity by half – is 0.1 to 1 µM on KRAS G12S and 1 to 10 µM on KRAS G12D.

With `CCn1c(-c2ccccc2CN(C)C)c2c3cc(ccc31)-c1cc(O)cc(c1)C[C@H](NC(=O)[C@H](C(C)C)N(C)C(=O)c1ccc(NC(=O)/C=C/CN(C)C)cn1)C(=O)N1CCC[C@H](N1)C(=O)OCC(C)(C)C2` [Example A046], the results for the concentration for half-maximal inhibition (IC50) at KRAS G12S and on KRAS G12D were > 10 µM and 1 to 10 µM, respectively.

As for `CCn1c(-c2ccccc2CN(C)C)c2c3cc(ccc31)-c1cc(O)cc(c1)C[C@H](NC(=O)[C@H](C(C)C)N(C)C(=O)c1ccc(NC(=O)/C=C/CN(C)C)cc1)C(=O)N1CCC[C@H](N1)C(=O)OCC(C)(C)C2` [Example A049], the IC50 at KRAS G12S and on KRAS G12D was > 10 µM throughout.

In the case of `C=CC(=O)N1CC[C@H](C(=O)N(C)[C@H](C(=O)N[C@H]2Cc3cc(O)cc(c3)-c3ccc4c(c3)c(c(-c3ccc(CN(C)C)cc3COC)n4CC)CC(C)(C)COC(=O)[C@@H]3CCCN(N3)C2=O)C(C)C)C1` [Example A051], the values for the IC50 at KRAS G12S and on KRAS G12D were 0.1 to 1 µM and 1 to 10 µM, respectively.

With `C=CC(=O)N1C[C@H](C)[C@H](C(=O)N(C)[C@H](C(=O)N[C@H]2Cc3cc(O)cc(c3)-c3ccc4c(c3)c(c(-c3ccccc3CN(C)C)n4CC)CC(C)(C)COC(=O)[C@@H]3CCCN(N3)C2=O)C(C)C)C1` [Example A052], the concentration for half-maximal inhibition (IC50) on KRAS G12S lay in the range of 0.1 to 1 µM; on KRAS G12D it was 1 to 10 µM.

For the molecule `C=CC(=O)N1CC[C@H](C(=O)N(C)[C@H](C(=O)N[C@H]2Cc3cc(O)cc(c3)-c3ccc4c(c3)c(c(-c3cccnc3COC)n4CC)CC(C)(C)COC(=O)[C@@H]3CCCN(N3)C2=O)C2CCCC2)C1` [Example A055], the IC50 on KRAS G12S lay in the range of 0.1 to 1 µM; at KRAS G12D, 1 to 10 µM.

As to `C=CC(=O)N1C[C@H](C)[C@H](C(=O)N(C)[C@H](C(=O)N[C@H]2Cc3cc(O)cc(c3)-c3ccc4c(c3)c(c(-c3cccnc3COC)n4CC)CC(C)(C)COC(=O)[C@@H]3CCCN(N3)C2=O)C(C)C)C1` [Example A056], the IC50 at KRAS G12S lay in the range of 0.1 to 1 µM; on KRAS G12D it was 1 to 10 µM.

As to `C=CC(=O)N1C[C@H](C)[C@H](C(=O)N(C)[C@H](C(=O)N[C@H]2Cc3cc(O)cc(c3)-c3ccc4c(c3)c(c(-c3cccnc3COC)n4CC)CC(C)(C)COC(=O)[C@@H]3CCCN(N3)C2=O)C2CCCC2)C1` [Example A057], the concentration for half-maximal inhibition (IC50) at KRAS G12S fell in the range of 0.1 to 1 µM; at KRAS G12D, 1 to 10 µM.

Turning to `C=CC(=O)N1CC[C@H](C(=O)N(C)[C@H](C(=O)N[C@H]2Cc3cc(O)cc(c3)-c3ccc4c(c3)c(c(C3=C(COC)COCC3)n4CC)CC(C)(C)COC(=O)[C@@H]3CCCN(N3)C2=O)C(C)C)C1` [Example A058], the half-inhibitory concentration (IC50) at KRAS G12S lay within 0.1 to 1 µM; at KRAS G12D it was 1 to 10 µM.

Consider `C=CC(=O)N1CC[C@H](C(=O)N(C)[C@H](C(=O)N[C@H]2Cc3cc(OC(C)=O)cc(c3)-c3ccc4c(c3)c(c(-c3ccccc3CN(C)C)n4CC)CC(C)(C)COC(=O)[C@@H]3CCCN(N3)C2=O)C(C)C)C1` [Example A059], for which the IC50 at KRAS G12S and on KRAS G12D was > 10 µM each time.

Regarding `C=CC(=O)N1CC[C@H](C(=O)N(C)[C@H](C(=O)N[C@H]2Cc3cc(O)cc(c3)-c3ccc4c(c3)c(c(-c3cccnc3COC)n4C)CC(C)(C)COC(=O)[C@@H]3CCCN(N3)C2=O)C(C)C)C1` [Example A066], the half-inhibitory concentration (IC50) at KRAS G12S was 1 to 10 µM; on KRAS G12D, > 10 µM.

On to `C=CC(=O)N1CC[C@@]2(CCN([C@H](C(=O)N[C@H]3Cc4cc(O)cc(c4)-c4ccc5c(c4)c(c(-c4ccccc4CCOC)n5CC)CC(C)(C)COC(=O)[C@@H]4CCCN(N4)C3=O)C(C)C)C2=O)C1` [Example A068], for which the half-maximal inhibitory concentration (IC50) at KRAS G12S was 1 to 10 µM; on KRAS G12D it was > 10 µM.

On to `C=CC(=O)N1CC[C@H](C(=O)N(C)[C@H](C(=O)N[C@H]2Cc3cc(O)cc(c3)-c3ccc4c(c3)c(c(-c3cncc(CN(C)C)c3)n4CC)CC(C)(C)COC(=O)[C@@H]3CCCN(N3)C2=O)C(C)C)C1` [Example A073], for which the IC50 at KRAS G12S was 1 to 10 µM; at KRAS G12D, > 10 µM.

In the case of `C=CC(=O)N1CC[C@H](C(=O)N(C)[C@H](C(=O)N[C@H]2Cc3cc(OC(=O)N(C)CC(=O)O)cc(c3)-c3ccc4c(c3)c(c(-c3ccccc3CCOC)n4CC)CC(C)(C)COC(=O)[C@@H]3CCCN(N3)C2=O)C(C)C)C1` [Example A078], the 50% inhibitory concentration (IC50) at KRAS G12S and on KRAS G12D was > 10 µM in each case.

Consider `CCn1c(-c2ccccc2COC)c2c3cc(ccc31)-c1cc(O)cc(c1)C[C@H](NC(=O)[C@H](C(C)C)N(C)C(=O)[C@H]1CCN(C(=O)/C=C/CN(C)C)C1)C(=O)N1CCC[C@H](N1)C(=O)OCC(C)(C)C2` [Example A079], for which the values for the IC50 on KRAS G12S and at KRAS G12D were 0.1 to 1 µM and 1 to 10 µM, respectively.

As for `C=CC(=O)N1CC[C@H](C(=O)N(C)[C@H](C(=O)N[C@H]2Cc3cc(O)cc(c3)-c3ccc4c(c3)c(c(-c3c(CCOC)cccc3OC)n4CC)CC(C)(C)COC(=O)[C@@H]3CCCN(N3)C2=O)C(C)C)C1` [Example A080], the IC50 at KRAS G12S and on KRAS G12D was > 10 µM each time.

Regarding `C=CC(=O)N1CC[C@H](C(=O)N(C)[C@H](C(=O)N[C@H]2Cc3cc(O)cc(c3)-c3ccc4c(c3)c(c(-c3cncc(CCN(C)C)c3)n4CC)CC(C)(C)COC(=O)[C@@H]3CCCN(N3)C2=O)C(C)C)C1` [Example A081], the IC50 at KRAS G12S was 1 to 10 µM; on KRAS G12D, > 10 µM.

For the molecule `C=CC(=O)N1CC[C@H](C(=O)N(C)[C@H](C(=O)N[C@H]2Cc3cc(O)cc(c3)-c3ccc4c(c3)c(c(-c3ncccc3COC)n4CC)CC(C)(C)COC(=O)[C@@H]3CCCN(N3)C2=O)C(C)C)C1` [Example A084], the concentration for half-maximal inhibition (IC50) at KRAS G12S and at KRAS G12D was > 10 µM in each case.

Consider `C=CC(=O)N1CC[C@H](C(=O)N(C)[C@H](C(=O)N[C@H]2Cc3cc(O)cc(c3)-c3ccc4c(c3)c(c(-c3nccnc3COC)n4CC)CC(C)(C)COC(=O)[C@@H]3CCCN(N3)C2=O)C(C)C)C1` [Example A085], for which the concentration for half-maximal inhibition (IC50) on KRAS G12S and at KRAS G12D was > 10 µM in each case.

For the molecule `CCn1c(-c2cnccc2COC)c2c3cc(ccc31)-c1cc(O)cc(c1)C[C@H](NC(=O)[C@H](C(C)C)N(C)C(=O)[C@H]1CCN(C(=O)C#CCN(C)C)C1)C(=O)N1CCC[C@H](N1)C(=O)OCC(C)(C)C2` [Example A088], the IC50 on KRAS G12S lay in the range of 0.1 to 1 µM; on KRAS G12D, 1 to 10 µM.

Consider `C=CC(=O)N1CC[C@H](C(=O)N(C)[C@H](C(=O)N[C@H]2Cc3cc(O)cc(c3)-c3ccc4c(c3)c(c(-c3cccnc3CN(C)C)n4CC)CC(C)(C)COC(=O)[C@@H]3CCCN(N3)C2=O)C(C)C)C1` [Example A092], for which the figures for the IC50 on KRAS G12S and on KRAS G12D were 1 to 10 µM and > 10 µM, respectively.

For the origin of these results see patent US11566007B2, “Ras inhibitors” (Revolution Medicines, Inc., priority 2019, dated 2023).
